Reference: patent US5446045A, “Antiviral guanine analogs” (priority 1993, dated 1995)
Converted amounts (≈) assume the structure as drawn.

Tests used:
[1] = literature ref. 3-7; cited from earlier work
viruses [2] = details: literature ref. 3; cited from earlier work
viruses [3] = details: literature ref. 3; cited from earlier work; remark: listed apart in the source
[4] = system: Herpes simplex virus type 2 (HSV2); assay: Inhibition of HSV2 in Vero cells (CPE assay); type: cell-based; details: Human alphaherpesvirus 2, CPE scored 40 to 48 h post-infection
Experimental: (§1) Vero and MRC-5 cells were obtained from ATCC. Human foreskin fibroblast (HFF) and Vero cells were routinely grown in minimal essential medium (MEM) with Earle salts [MEM(E)]supplemented with 10% fetal bovine serum (FBS). MRC-5 cells were grown in Basal Medium Eagle (BME) with 10% FBS and 0.035% NaHCO3. Cells were passaged according to conventional procedures.^33 Human cytomegalovirus (HCMV) strains AD169 and Towne were obtained from the ATCC. Herpes simplex virus type i and type 2 (HSV1 and HSV2) are commercially available.
(§2) Vero cells were plated at 4×10^4 cells/well in a 96-well microtitre dish in 0.1 mL of MEM(E) with 10% FBS 24 h before infection with virus. The cells were incubated at 37° C. in a 5% CO2 atmosphere. The medium was then removed and 50 μL of media containing 30 to 50 PFU of virus was allowed to adsorb to the cells for 10 minutes at 37° C. The virus containing medium was then removed and the cells were rinsed 3 times with fresh media. A final 100 μL aliquot of fresh medium, containing the various dilutions of test compounds, was then added to each well and the plates were then incubated at 37° C. Plaques were observed 24 hr post-infection and the degree of cytopathic effect scored 40 to 48 h post-infection. Acyclovir was used as a standard in all ttSV assays.
(§3) I. The same compounds used in Example 31 were also assayed for their ability to inhibit herpes simplex viruses type 1 and type 2 in acute infection assays in culture.
(§4) III. The toxic effect of these compounds on actively dividing Vero cells is reported. For all values listed as >x, x is the highest concentration tested for the respective compound.
(§5) Vero cells were plated in a 96-well microtitre dish in 0.1 ml of MEM(E) with 10% FBS 24 hours before infection with virus. The medium will then be removed and 50 ul of media containing 30 to 50 PFU of virus were allowed to adsorb to the cells for 10 minutes at 37° C. The virus-containing medium will then be removed and the cells rinsed 3 times with fresh media. A final 100 ul aliquot of fresh medium, containing the various dilutions of test compounds, were added to each well and the plates incubated at 37° C. Plaques were observed 24 hours post-infection and the degree of cytopathic effect scored 40 to 48 hours-post infection. Acyclovir was used as a standard in all HSV assays.

[5] = Visual cytotoxicity in stationary uninfected MRC-5 cells; type: cell-based; details: human, AD169/MRC5 system, visual observation of stationary uninfected MRC5 cells, read-out: TC50 (median toxic concentration)
Experimental: (§6) Stationary uninfected HFF and MRC-5 cells were evaluated for visual cytotoxicity on the scoring basis of 0 (no visual cytotoxicity at 20 fold magnification) to 4 (cell sheet nearly destroyed). Cytotoxicity as measured by inhibition of cell growth was performed in Vero cells using a CellTiter 96™ Aqueous Non-Radioactivity Cell Proliferation Assay (Promega). Cytotoxicity assays were performed using a 4 day incubation of test compound with Vero cells plated at 500 cells/well. Each assay was performed in quadruplicate. The resultant data are averaged, graphed and then used to calculate the TC50 (median toxic concentration) for the compound tested.
(§7) I. A series of guanine analogs containing an alkyl side chain in place of sugar moiety were evaluated for their ability to inhibit HCMV production in acute infection assays in culture and for cytotoxicity in HFF and MRC-5 cells.
(§8) III. Table 1 lists the median inhibitory concentration (IC50) for all compounds tested against HCMV strains AD169 or Towne. In addition this table lists the median toxic concentrations of these compounds (TC50) as determined by visual observation of uninfected cells treated with various concentrations of drug.

[6] = system: Herpes simplex virus type 1 (HSV1); assay: Inhibition of HSV1 in Vero cells (CPE assay); type: cell-based; details: Human alphaherpesvirus 1, CPE scored 40 to 48 h post-infection
Experimental: as §1, §2, §3, §4, §5

[7] = system: Human cytomegalovirus (HCMV) strain AD169; assay: HCMV plaque reduction (cytopathic effect) assay, strain AD169 in MRC-5 cells; type: cell-based; details: Human betaherpesvirus 5, AD169/MRC5, read-out: IC50 (median inhibitory concentration)
Experimental: as §1
Two different plaque reduction assays were employed to determine the antiviral efficacy of the test compounds in culture. The first assay used MRC-5 cells and the AD169 strain of HCMV. The second assay used HFF cells and the Towne strain of HCMV. In experiments using MRC-5 cells the growth medium was removed from monolayer cultures in 24-well tissue culture plates. One mL of virus (AD169), diluted in test medium (Dulbecco's modified Eagle medium (DMEM), 2% FBS, 0.1% NaHCO3 and 50 ug gentamicin/mL) was used. The 24-well plates were centrifuged at 2200 rpm for 30 minutes at room temperature to allow the virus to adsorb. Medium was then aspirated from each well of the plates. The individual dilutions of each compound (prepared in test medium) were placed in each test well (0.8 mL/well, 4 wells/dilution). All plates were incubated at 37° C. in a moist atmosphere of 5% CO2. When virus plaques had formed in control cells (HCMV infected, untreated) the medium was aspirated from all wells, and the cells were stained by adding 0.3 mL of 0.2% crystal violet in 10% buffered formalin to each well. After 15 minutes, the stain was removed, cells were rinsed in tap water until the water was clear, and the plates were inverted and dried at room temperature. Plaques were counted by use of a dissecting microscope.
(§9) Ganciclovir was used as an anti-HCMV standard in all HCMV assays.
as §7, §8
Plaque reduction assays were employed to determine the antiviral efficacy of the test compounds in culture. MRC-5 cells and the AD169 strain of FICMV were used. Growth medium was removed from monolayer cultures in 24-well tissue culture plates. One ml of virus, diluted in test medium (Dulbecco's modified Eagle medium (DMEM), 2% FBS, 0.1% NaHCO3 and 50 ug gentamicin/ml). After infection and subsequent removal of the media, individual dilutions of each compound (prepared in test medium) were placed in each test well (0.8 ml/well, 4 wells/dilution) and plates incubated at 37° C. in a moist atmosphere of 5% CO2. When virus plaques have formed in control cells (HCMV infected, untreated) the medium was aspirated from all wells, and the cells stained by adding 0.3 ml of 0.2% crystal violate in 10% buffered formalin to each well. Plaques were counted by use of a dissecting microscope. Ganciclovir was used as an anti-HCMV standard in all HCMV assays.

[8] = Cytotoxicity (inhibition of cell growth) in actively dividing Vero cells, CellTiter 96 assay; type: cell-based; details: african green monkey, 4 day incubation, read-out: Cytotoxicity (TC50)
Experimental: as §1, §6
III. […] For all values listed as >x, x is the highest concentration tested for the respective compound.

[9] = system: Human cytomegalovirus (HCMV) strain Towne; assay: HCMV plaque reduction (cytopathic effect) assay, strain Towne in HFF cells; type: cell-based; details: Human betaherpesvirus 5, HFF, read-out: IC50 (median inhibitory concentration)
Experimental: as §1
A similar set of experiments designed to monitor HCMV plaque reduction were performed with monolayer cultures of HFF and the Towne strain of HCMV using procedures similar to those reported by Turk et al.^34 Diploid HFF cells were plated 24 hr before use at approximately 1×10^5 cells/plate. These monolayer cultures were infected with 100 plaque forming units (PFU) of virus. The compounds to be assayed were dissolved in culture medium. Viral adsorption was allowed to proceed for 1 hr at which time virus containing medium was removed and replaced with medium containing the various dilutions of the test compounds. Plaques were counted using crystal violet as described above.
as §9, §7, §8

[10] = Visual cytotoxicity in stationary uninfected HFF cells; type: cell-based; details: human; Towne/HFF system; visual observation of stationary uninfected HFF cells; read-out: TC50 (median toxic concentration)
Experimental: as §1, §6, §7, §8

DNA viruses = details: literature refs. 14-17; cited from earlier work

| SMILES | immunomodulatory activity [1] | antiviral activity in vitro (viruses [2]) | antiviral activity in the host animal (viruses [3]) | IC50 [4] [µg/mL] | CC50 [5] [µg/mL] | IC50 [6] [µg/mL] | IC50 [7] [µg/mL] | CC50 at 96 h [8] [µg/mL] | IC50 [9] [µg/mL] | CC50 [10] [µg/mL] | activity against several DNA viruses (DNA viruses) |
| --- | --- | --- | --- | --- | --- | --- | --- | --- | --- | --- | --- |
| Nc1nc2c(sc(=O)n2[C@@H]2O[C@H](CO)[C@@H](O)[C@H]2O)c(=O)[nH]1 [7-thia-8-oxoguanosine] | demonstrated immunomodulatory activity | virtually inactive | broad spectrum of antiviral activity | – | – | – | – | – | – | – | – |
| CCCCCCn1c(=O)sc2c(=O)[nH]c(N)nc21 [Compound R1132-30] | – | – | – | > 1.2 | 1.2 (≈ 4.47 µM) | > 1.2 | 0.45 (≈ 1.68 µM) | > 1 | – | – | – |
| CCCCCn1c(=O)sc2c(=O)[nH]c(N)nc21 [Compound R1132-36] | – | – | – | > 5.1 | 4 (≈ 15.7 µM) | > 5.1 | 0.2 (≈ 0.786 µM) | > 5 | 17 (≈ 66.8 µM) | 100 (≈ 393 µM) | – |
| CC(C)=CCn1c(=O)sc2c(=O)[nH]c(N)nc21 [Compound R1132-72, 5-Amino-3-(3-methylbut-2-ene-1-yl)thiazo lo[4,5-d]-pyrimidine-2,7(3H,6H)-dione] | – | – | – | 5.6 (≈ 22.2 µM) | > 100 | 5.6 (≈ 22.2 µM) | 4 (≈ 15.9 µM) | 20 (≈ 79.3 µM) | 1.7 (≈ 6.74 µM) | 100 (≈ 396 µM) | – |
| CCCCC(CCCC)n1c(=O)sc2c(=O)[nH]c(N)nc21 [Compound R1132-73, 5-Amino-3-(nonan-5-yl)thiazolo[4,5-d]-pyrimidine-2,7(3H, 6H)-dione] | – | – | – | > 2.2 | 178 (≈ 573 µM) | > 2.2 | 9.4 (≈ 30.3 µM) | > 2.5 | 4.7 (≈ 15.1 µM) | 11.1 (≈ 35.8 µM) | – |
| CCC=CCn1c(=O)sc2c(=O)[nH]c(N)nc21 [Compound R1132-74, 5-Amino-3-(pent-2-ene-1-yl)thiazolo[4,5-d]-pyrimidine-2,7(3H,6H)-dione] | – | – | – | < 0.27 | > 100 | 0.53 (≈ 2.1 µM) | < 1 | > 20 | 0.14 (≈ 0.555 µM) | > 100 | – |
| C=CCCCn1c(=O)sc2c(=O)[nH]c(N)nc21 [Compound R1132-75, 5-Amino-3-(pent-4-ene-1-yl)thiazolo[4,5-d]-pyrimidine-2,7(3H, 6H)-dione] | – | – | – | 8.1 (≈ 32.1 µM) | 68 (≈ 270 µM) | 16.2 (≈ 64.4 µM) | 9.4 (≈ 37.3 µM) | 45 (≈ 178 µM) | 12 (≈ 47.6 µM) | > 100 | – |
| CCC(CC)n1c(=O)sc2c(=O)[nH]c(N)nc21 [Compound R1132-76, 5-Amino-3-(pentan-3-yl)thiazolo[4,5-d]-pyrimidine-2,7(3H, 6 H)-dione] | – | – | – | 21.7 (≈ 85.3 µM) | 32 (≈ 126 µM) | > 21.7 | > 100 | 56 (≈ 220 µM) | – | – | – |
| CCCCCC(CCCCC)n1c(=O)sc2c(=O)[nH]c(N)nc21 [Compound R1132-77, 5-Amino-3-(undecan-6-yl)thiazolo[4,5-d]-pyrimidine-2,7(3H,6H)-dione] | – | – | – | – | 52 (≈ 154 µM) | – | 12 (≈ 35.5 µM) | – | – | – | – |
| O=c1[nH]c(=O)n([C@@H]2O[C@H](CO)[C@@H](O)[C@@H]2F)cc1I [FIAU, 1-(2-deoxy-2-fiuoro-β-D-arabinofuranosyl)-5-iodouracil] | – | – | – | – | – | – | – | – | – | – | potent agents against several DNA viruses |
| Cc1cn([C@@H]2O[C@H](CO)[C@@H](O)[C@@H]2F)c(=O)[nH]c1=O [FMAU, 1-(2-deoxy-2-fiuoro-β-D-arabinofuranosyl)thymine] | – | – | – | – | – | – | – | – | – | – | potent agents against several DNA viruses |
| Nc1nc2c(ncn2COC(CO)CO)c(=O)[nH]1 [Ganciclovir, 9-(1-hydroxymethyl-2-hydroxyethoxymethyl)guanine, reference compound] | – | – | – | – | > 900 | – | 2.1 (≈ 8.23 µM) | – | 2.7 (≈ 10.6 µM) | > 100 | – |
| Nc1nc2c(ncn2COCCO)c(=O)[nH]1 [acyclovir, 9-(2-hydroxyethoxymethyl)guanine, reference compound] | – | – | – | 0.2 (≈ 0.888 µM) | – | 0.2 (≈ 0.888 µM) | – | > 100 | – | – | – |
